The values below come from patent US8574563B2 (Bristol-Myers Squibb Company, priority 2006, dated 2013).

The assay relates to HCV 1b-377-neo replicon cells. Description: HCV replicon assay, HCV 1b-377-neo replicon cells (1b FRET). In kind it is cell-based, Hepatitis C virus genotype 1b. To be noted: Hepatitis C virus, HCV 1b-377-neo replicon cells; HCV 1b genotype; read-out: EC50 range against HCV 1b (Table 2, Range). A digest of the protocol:
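Compounds were tested in genotype 1b subgenomic replicon cells carrying a neomycin marker, alongside a matched replicon line with an NS5A Y2065H substitution that confers resistance to a reference NS5A inhibitor.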
In general terms: Replicon systems follow genome replication, usually without infectious particles.
Take `CCN(CC)[C@@H](C(=O)N1CCC[C@H]1c1ncc(-c2ccc(-c3ccc(-c4cnc([C@@H]5CCCN5C(=O)C[C@@H](Cc5cccs5)NC(=O)OC)[nH]4)cc3)cc2)[nH]1)c1ccccc1` [cj-56, methyl ((1S)-3-((2S)-2-(5-(4′-(2-((2S)-1-((2R)-2-(diethylamino)-2-phenylacetyl)-2-pyrrolidinyl)-1H-imidazol-5-yl)-4-biphenylyl)-1H-imidazol-2-yl)-1-pyrrolidinyl)-3-oxo-1-(2-thienylmethyl)propyl)carbamate]: the EC50 (usually the midpoint of the concentration-response curve) was 0.001 to 0.999 nM.

On to `CCN(CC)[C@@H](C(=O)N1CCC[C@H]1c1ncc(-c2ccc(-c3ccc(-c4cnc([C@@H]5CCCN5C(=O)[C@@H]5CC[C@H](NC(=O)OC)C5)[nH]4)cc3)cc2)[nH]1)c1ccccc1` [cj-57, methyl ((1S,3R)-3-(((2S)-2-(5-(4′-(2-((2S)-1-((2R)-2-(diethylamino)-2-phenylacetyl)-2-pyrrolidinyl)-1H-imidazol-5-yl)-4-biphenylyl)-1H-imidazol-2-yl)-1-pyrrolidinyl)carbonyl)cyclopentyl)carbamate], for which the EC50 fell in the range of 0.001 to 0.999 nM.

For `CCN(CC)[C@@H](C(=O)N1CCC[C@H]1c1ncc(-c2ccc(-c3ccc(-c4cnc([C@@H]5CCCN5C(=O)C[C@@H](Cc5ccccc5)NC(=O)OC)[nH]4)cc3)cc2)[nH]1)c1ccccc1` [cj-58, methyl ((1R)-1-benzyl-3-((2S)-2-(5-(4′-(2-((2S)-1-((2R)-2-(diethylamino)-2-phenylacetyl)-2-pyrrolidinyl)-1H-imidazol-5-yl)-4-biphenylyl)-1H-imidazol-2-yl)-1-pyrrolidinyl)-3-oxopropyl)carbamate], the EC50 lay within 0.001 to 0.999 nM.

Regarding `CCN(CC)[C@@H](C(=O)N1CCC[C@H]1c1ncc(-c2ccc(-c3ccc(-c4cnc([C@@H]5CCCN5C(=O)[C@H]5CC[C@@H](NC(=O)OC)C5)[nH]4)cc3)cc2)[nH]1)c1ccccc1` [cj-60, methyl ((1R,3S)-3-(((2S)-2-(5-(4′-(2-((2S)-1-((2R)-2-(diethylamino)-2-phenylacetyl)-2-pyrrolidinyl)-1H-imidazol-5-yl)-4-biphenylyl)-1H-imidazol-2-yl)-1-pyrrolidinyl)carbonyl)cyclopentyl)carbamate], the EC50 was 0.001 to 0.999 nM.

For the compound `COC(=O)N[C@H]1CC[C@@H](C(=O)N2CCC[C@H]2c2ncc(-c3ccc(-c4ccc(-c5cnc([C@@H]6CCCN6C(=O)[C@@H](NC(=O)OC)C(C)C)[nH]5)cc4)cc3)[nH]2)C1` [cj-61, methyl ((1S)-1-(((2S)-2-(5-(4′-(2-((2S)-1-(((1R,3S)-3-((methoxycarbonyl)amino)cyclopentyl)carbonyl)-2-pyrrolidinyl)-1H-imidazol-5-yl)-4-biphenylyl)-1H-imidazol-2-yl)-1-pyrrolidinyl)carbonyl)-2-methylpropyl)carbamate], the 50% effective concentration (EC50) lay within 0.001 to 0.999 nM.

In the case of `COC(=O)N[C@@H]1CC[C@H](C(=O)N2CCC[C@H]2c2ncc(-c3ccc(-c4ccc(-c5cnc([C@@H]6CCCN6C(=O)[C@@H](NC(=O)OC)C(C)C)[nH]5)cc4)cc3)[nH]2)C1` [cj-62, methyl ((1S)-1-(((2S)-2-(5-(4′-(2-((2S)-1-(((1S,3R)-3-((methoxycarbonyl)amino)cyclopentyl)carbonyl)-2-pyrrolidinyl)-1H-imidazol-5-yl)-4-biphenylyl)-1H-imidazol-2-yl)-1-pyrrolidinyl)carbonyl)-2-methylpropyl)carbamate], the EC50 was in the range of 0.001 to 0.999 nM.

For the compound `COC(=O)N[C@H]1CC[C@@H](C(=O)N2CCC[C@H]2c2ncc(-c3ccc(-c4ccc(-c5cnc([C@@H]6CCCN6C(=O)[C@H](NC(=O)OC)c6ccccc6)[nH]5)cc4)cc3)[nH]2)C1` [cj-63, methyl ((1R)-2-((2S)-2-(5-(4′-(2-((2S)-1-(((1R,3S)-3-((methoxycarbonyl)amino)cyclopentyl)carbonyl)-2-pyrrolidinyl)-1H-imidazol-5-yl)-4-biphenylyl)-1H-imidazol-2-yl)-1-pyrrolidinyl)-2-oxo-1-phenylethyl)carbamate], the EC50 was 0.001 to 0.999 nM.

In the case of `COC(=O)N[C@@H]1CC[C@H](C(=O)N2CCC[C@H]2c2ncc(-c3ccc(-c4ccc(-c5cnc([C@@H]6CCCN6C(=O)[C@H](NC(=O)OC)c6ccccc6)[nH]5)cc4)cc3)[nH]2)C1` [cj-64, methyl ((1R)-2-((2S)-2-(5-(4′-(2-((2S)-1-(((1S,3R)-3-((methoxycarbonyl)amino)cyclopentyl)carbonyl)-2-pyrrolidinyl)-1H-imidazol-5-yl)-4-biphenylyl)-1H-imidazol-2-yl)-1-pyrrolidinyl)-2-oxo-1-phenylethyl)carbamate], the EC50 is 0.001 to 0.999 nM.

Turning to `COC(=O)N[C@@H](Cc1ccccn1)C(=O)N1CCC[C@H]1c1ncc(-c2ccc(-c3ccc(-c4cnc([C@@H]5CCCN5C(=O)[C@@H](NC(=O)OC)C(C)C)[nH]4)cc3)cc2)[nH]1` [cj-65, methyl ((1S)-1-(((2S)-2-(5-(4′-(2-((2S)-1-((2S)-2-((methoxycarbonyl)amino)-3-(2-pyridinyl)propanoyl)-2-pyrrolidinyl)-1H-imidazol-5-yl)-4-biphenylyl)-1H-imidazol-2-yl)-1-pyrrolidinyl)carbonyl)-2-methylpropyl)carbamate], the EC50 fell in the range of 0.001 to 0.999 nM.

`COC(=O)N[C@@H](C)C(=O)N1CCC[C@H]1c1ncc(-c2ccc(-c3ccc(-c4cnc([C@@H]5CCCN5C(=O)[C@H](Cc5ccccn5)NC(=O)OC)[nH]4)cc3)cc2)[nH]1` [cj-66, methyl ((1S)-2-((2S)-2-(5-(4′-(2-((2S)-1-(N-(methoxycarbonyl)-L-alanyl)-2-pyrrolidinyl)-1H-imidazol-5-yl)-4-biphenylyl)-1H-imidazol-2-yl)-1-pyrrolidinyl)-2-oxo-1-(2-pyridinylmethyl)ethyl)carbamate]: the EC50 was in the range of 0.001 to 0.999 nM.

For `COC(=O)N[C@@H](Cc1ccccn1)C(=O)N1CCC[C@H]1c1ncc(-c2ccc(-c3ccc(-c4cnc([C@@H]5CCCN5C(=O)[C@@H](NC(=O)OC)[C@@H](C)OC)[nH]4)cc3)cc2)[nH]1` [cj-67], the half-maximal effective concentration (EC50) lay within 0.001 to 0.999 nM.

As to `CCN(CC)[C@@H](C(=O)N1CCC[C@H]1c1ncc(-c2ccc(-c3ccc(-c4cnc([C@@H]5CCCN5C(=O)[C@H](Cc5ccccn5)NC(=O)OC)[nH]4)cc3)cc2)[nH]1)c1ccccc1` [cj-68, methyl ((1S)-2-((2S)-2-(5-(4′-(2-((2S)-1-((2R)-2-(diethylamino)-2-phenylacetyl)-2-pyrrolidinyl)-1H-imidazol-5-yl)-4-biphenylyl)-1H-imidazol-2-yl)-1-pyrrolidinyl)-2-oxo-1-(2-pyridinylmethyl)ethyl)carbamate], the EC50 fell in the range of 0.001 to 0.999 nM.

Consider `COC(=O)N[C@H](C(=O)N1CCC[C@H]1c1ncc(-c2ccc(-c3ccc(-c4cnc([C@@H]5CCCN5C(=O)[C@H]5CC[C@@H](NC(=O)OC)CC5)[nH]4)cc3)cc2)[nH]1)C(C)C` [cj-69, methyl ((1S)-1-(((2S)-2-(5-(4′-(2-((2S)-1-((cis-4-((methoxycarbonyl)amino)cyclohexyl)carbonyl)-2-pyrrolidinyl)-1H-imidazol-5-yl)-4-biphenylyl)-1H-imidazol-2-yl)-1-pyrrolidinyl)carbonyl)-2-methylpropyl)carbamate], for which the EC50 was 0.001 to 0.999 nM.

Take `COC(=O)N[C@H](C(=O)N1CCC[C@H]1c1ncc(-c2ccc(-c3ccc(-c4cnc([C@@H]5CCCN5C(=O)[C@H]5CC[C@H](NC(=O)OC)CC5)[nH]4)cc3)cc2)[nH]1)C(C)C` [cj-70, methyl ((1S)-1-(((2S)-2-(5-(4′-(2-((2S)-1-((trans-4-((methoxycarbonyl)amino)cyclohexyl)carbonyl)-2-pyrrolidinyl)-1H-imidazol-5-yl)-4-biphenylyl)-1H-imidazol-2-yl)-1-pyrrolidinyl)carbonyl)-2-methylpropyl)carbamate]: the EC50 is 0.001 to 0.999 nM.

Take `CCN(CC)[C@H]1CC[C@@H](C(=O)N2CCC[C@H]2c2ncc(-c3ccc(-c4ccc(-c5cnc([C@@H]6CCCN6C(=O)[C@@H](NC(=O)OC)C(C)C)[nH]5)cc4)cc3)[nH]2)CC1` [cj-71, methyl ((1S)-1-(((2S)-2-(5-(4′-(2-((2S)-1-((cis-4-(diethylamino)cyclohexyl)carbonyl)-2-pyrrolidinyl)-1H-imidazol-5-yl)-4-biphenylyl)-1H-imidazol-2-yl)-1-pyrrolidinyl)carbonyl)-2-methylpropyl)carbamate]: the EC50 was in the range of 0.001 to 0.999 nM.

On to `CCN(CC)[C@H]1CC[C@@H](C(=O)N2CCC[C@H]2c2ncc(-c3ccc(-c4ccc(-c5cnc([C@@H]6CCCN6C(=O)[C@@H](NC(=O)OC)[C@@H](C)OC)[nH]5)cc4)cc3)[nH]2)CC1` [cj-72, methyl ((1S,2R)-1-(((2S)-2-(5-(4′-(2-((2S)-1-((cis-4-(diethylamino)cyclohexyl)carbonyl)-2-pyrrolidinyl)-1H-imidazol-5-yl)-4-biphenylyl)-1H-imidazol-2-yl)-1-pyrrolidinyl)carbonyl)-2-methoxypropyl)carbamate], for which the concentration for a half-maximal effect (EC50) was 0.001 to 0.999 nM.

`CCN(CC)[C@@H](C(=O)N1CCC[C@H]1c1ncc(-c2ccc(-c3ccc(-c4cnc([C@@H]5CCCN5C(=O)[C@H]5CC[C@@H](N(CC)CC)CC5)[nH]4)cc3)cc2)[nH]1)c1ccccc1` [cj-73, cis-4-(((2S)-2-(5-(4′-(2-((2S)-1-((2R)-2-(diethylamino)-2-phenylacetyl)-2-pyrrolidinyl)-1H-imidazol-5-yl)-4-biphenylyl)-1H-imidazol-2-yl)-1-pyrrolidinyl)carbonyl)-N,N-diethylcyclohexanamine]: the EC50 is 0.001 to 0.999 nM.

For `CCN(CC)[C@H]1CC[C@@H](C(=O)N2CCC[C@H]2c2ncc(-c3ccc(-c4ccc(-c5cnc([C@@H]6CCCN6C(=O)[C@H](C)NC(=O)OC)[nH]5)cc4)cc3)[nH]2)CC1` [cj-74, methyl ((1S)-2-((2S)-2-(5-(4′-(2-((2S)-1-((cis-4-(diethylamino)cyclohexyl)carbonyl)-2-pyrrolidinyl)-1H-imidazol-5-yl)-4-biphenylyl)-1H-imidazol-2-yl)-1-pyrrolidinyl)-1-methyl-2-oxoethyl)carbamate], the EC50 is 1 to 99 nM.
